Here are results for 42 molecules from ChEMBL document CHEMBL3879907, “8-azabicyclo[3.2.1]octane compounds as mu opioid receptor antagonists” (2014).

Experiment [1] addresses Kappa-type opioid receptor (Cavia porcellus, UniProt P41144). Kind of experiment: Displacement of [3H]-diprenorphine from guinea pig kappa opioid receptor expressed in CHOK1 cell membranes. The settings on record: cho-k1. On the technique in general: In a radioligand displacement assay an active substance lowers the binding of a labelled ligand.
In experiment [2] the target is Delta-type opioid receptor (Homo sapiens, UniProt P41143). Kind of experiment: Displacement of [3H]-diprenorphine from human delta opioid receptor expressed in cell membranes.
Chain of Delta-type opioid receptor (P41143 whole entry): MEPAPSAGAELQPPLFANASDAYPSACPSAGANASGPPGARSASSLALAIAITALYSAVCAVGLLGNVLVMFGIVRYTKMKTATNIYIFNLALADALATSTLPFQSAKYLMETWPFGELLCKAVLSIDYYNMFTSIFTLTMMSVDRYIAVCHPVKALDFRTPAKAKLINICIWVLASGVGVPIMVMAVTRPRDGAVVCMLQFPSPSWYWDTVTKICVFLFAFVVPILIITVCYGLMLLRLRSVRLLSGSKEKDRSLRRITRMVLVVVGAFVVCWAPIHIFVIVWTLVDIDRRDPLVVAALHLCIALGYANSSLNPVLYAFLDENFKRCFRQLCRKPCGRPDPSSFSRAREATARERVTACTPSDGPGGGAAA
Experiment [3] addresses Mu-type opioid receptor (Homo sapiens) (UniProt P35372). Description: Intrinsic activity at human mu opioid receptor expressed in CHOK1 cell membranes at 0.00001 to 20 uM after 30 mins by GTP-Eu nucleotide exchange assay relative to DAMGO. In kind it is functional. Conditions: CHO-K1.

The structures appear in SMILES notation.

Chain of Mu-type opioid receptor (Homo sapiens) (P35372 whole entry): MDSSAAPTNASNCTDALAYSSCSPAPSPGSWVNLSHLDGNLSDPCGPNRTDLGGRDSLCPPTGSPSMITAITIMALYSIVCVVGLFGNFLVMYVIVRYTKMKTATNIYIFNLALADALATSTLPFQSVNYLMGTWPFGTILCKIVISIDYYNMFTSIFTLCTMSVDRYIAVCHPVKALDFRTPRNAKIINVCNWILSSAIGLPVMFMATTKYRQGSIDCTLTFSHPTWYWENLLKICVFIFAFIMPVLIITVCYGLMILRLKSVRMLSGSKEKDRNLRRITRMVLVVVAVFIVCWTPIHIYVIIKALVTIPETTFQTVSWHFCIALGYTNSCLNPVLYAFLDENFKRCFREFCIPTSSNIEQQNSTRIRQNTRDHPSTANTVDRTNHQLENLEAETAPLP
Chain of Kappa-type opioid receptor (P41144 whole entry): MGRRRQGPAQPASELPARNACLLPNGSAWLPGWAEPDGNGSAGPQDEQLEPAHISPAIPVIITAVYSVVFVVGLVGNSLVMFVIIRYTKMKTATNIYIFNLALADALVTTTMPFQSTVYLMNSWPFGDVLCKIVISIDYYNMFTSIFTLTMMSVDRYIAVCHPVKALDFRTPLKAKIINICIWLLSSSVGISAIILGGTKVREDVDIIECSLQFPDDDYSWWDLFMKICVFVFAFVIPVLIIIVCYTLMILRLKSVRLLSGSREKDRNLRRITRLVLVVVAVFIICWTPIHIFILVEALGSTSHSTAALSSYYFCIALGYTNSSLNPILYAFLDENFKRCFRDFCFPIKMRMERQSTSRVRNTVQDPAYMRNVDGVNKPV

As to `CC(C)(CO)C(=O)N(CCN1[C@@H]2CC[C@H]1C[C@@H](c1cccc(C(N)=O)c1)C2)CC1CCCC1.O=C(O)C(F)(F)F`, the pKi in experiment [1] and in experiment [2] was 7 to 10.5 in each case. The molecule also registered an Intrinsic activity in experiment [3] of under 40%.

As for `NC(=O)c1cccc([C@H]2C[C@H]3CC[C@@H](C2)N3CCN(Cc2c(F)cccc2F)C(=O)[C@@H](O)Cc2ccccc2)c1.O=C(O)C(F)(F)F`, the pKi in experiment [1] and in experiment [2] was 7 to 10.5 each time. The Intrinsic activity in experiment [3] is under 40%.

As to `NC(=O)c1cccc([C@H]2C[C@H]3CC[C@@H](C2)N3CCN(CC2CCCCC2)C(=O)[C@@H](O)Cc2ccccc2)c1`, the pKi in experiment [1] and in experiment [2] was 7 to 10.5 throughout. Further, in experiment [3], the Intrinsic activity is under 40%.

With `C[C@H](CN1[C@@H]2CC[C@H]1C[C@@H](c1cccc(O)c1)C2)N(Cc1ccccc1)C(=O)CCC1CCCC1`, the pKi in experiment [1] and in experiment [2] was 7 to 10.5 throughout. In experiment [3], this molecule yielded an Intrinsic activity of under 40%.

Consider `C[C@H](O)C(=O)N(CCN1[C@@H]2CC[C@H]1C[C@@H](c1cccc(C(N)=O)c1)C2)CC1CCC1.O=C(O)C(F)(F)F`, for which the negative-log Ki (pKi) in experiment [1] and in experiment [2] was 7 to 10.5 in each case. In addition, the Intrinsic activity in experiment [3] was under 40%.

Turning to `NC(=O)c1cccc([C@H]2C[C@H]3CC[C@@H](C2)N3CCN(CCc2ccc(F)cc2)C(=O)CO)c1.O=C(O)C(F)(F)F`, the pKi in experiment [1] and in experiment [2] was 7 to 10.5 in each case. In experiment [3], the Intrinsic activity is under 40%.

In the case of `CS(=O)(=O)CC(=O)N(CCN1[C@@H]2CC[C@H]1C[C@@H](c1cccc(O)c1)C2)Cc1c(F)cccc1F`, the pKi in experiment [1] and in experiment [2] was 7 to 10.5 in each case. In experiment [3], this molecule yielded an Intrinsic activity of under 40%.

For the molecule `CS(=O)(=O)N(CCN1[C@@H]2CC[C@H]1C[C@@H](c1cccc(C(N)=O)c1)C2)Cc1c(F)cccc1F.O=C(O)C(F)(F)F`, the pKi in experiment [1] and in experiment [2] was 7 to 10.5 in each case. The molecule also showed an Intrinsic activity in experiment [3] of under 40%.

`CS(=O)(=O)CC(=O)N(CCN1[C@@H]2CC[C@H]1C[C@@H](c1cccc(O)c1)C2)CC1CCCCC1`: the negative-log Ki (pKi) in experiment [1] and in experiment [2] was 7 to 10.5 each time. For the same molecule, in experiment [3], the Intrinsic activity is under 40%.

On to `O=C(C1CCCC1)N(CCN1[C@@H]2CC[C@H]1C[C@@H](c1cccc(O)c1)C2)Cc1ccccc1` (single isomer, unassigned), for which the pKi in experiment [1] and in experiment [2] was 7 to 10.5 each time. Moreover, in experiment [3], the Intrinsic activity was under 40%.

In the case of `NC(=O)c1cccc([C@H]2C[C@H]3CC[C@@H](C2)N3CCN(CC2CCCCC2)C(=O)[C@@H](O)CCO)c1.O=C(O)C(F)(F)F`, the negative logarithm of the Ki (pKi) in experiment [1] and in experiment [2] was 7 to 10.5 in each case. The molecule also gave an Intrinsic activity in experiment [3] of under 40%.

As for `CC(CO)(CO)C(=O)N(CCN1[C@@H]2CC[C@H]1C[C@@H](c1cccc(C(N)=O)c1)C2)CC1CCCCC1`, the pKi in experiment [1] and in experiment [2] was 7 to 10.5 in each case. In experiment [3], the Intrinsic activity was under 40%.

On to `COCC(=O)N(CCN1[C@@H]2CC[C@H]1C[C@@H](c1cccc(C(N)=O)c1)C2)Cc1ccccc1.O=C(O)C(F)(F)F`, for which the pKi in experiment [1] and in experiment [2] was 7 to 10.5 each time. Further, the Intrinsic activity in experiment [3] was under 40%.

`NC(=O)c1cccc([C@H]2C[C@H]3CC[C@@H](C2)N3CCN(CC2CCCCC2)C(=O)C2(O)CC2)c1.O=C(O)C(F)(F)F`: the pKi in experiment [1] and in experiment [2] was 7 to 10.5 each time. In experiment [3], the Intrinsic activity is under 40%.

On to `NC(=O)c1cccc([C@H]2C[C@H]3CC[C@@H](C2)N3CCN(CCC2CCCCC2)C(=O)CO)c1`, for which the pKi in experiment [1] and in experiment [2] was 7 to 10.5 throughout. Moreover, the Intrinsic activity in experiment [3] is under 40%.

Take `O=C([C@@H](O)C1CCCCC1)N(CCN1[C@@H]2CC[C@H]1C[C@@H](c1cccc(O)c1)C2)CC1CCCCC1`: the pKi in experiment [1] and in experiment [2] was 7 to 10.5 each time. In experiment [3], this molecule had an Intrinsic activity of under 40%.

Consider `N#CCC(=O)N(CCN1[C@@H]2CC[C@H]1C[C@@H](c1cccc(C(N)=O)c1)C2)Cc1ccccc1.O=C(O)C(F)(F)F`, for which the pKi in experiment [1] and in experiment [2] was 7 to 10.5 in each case. The Intrinsic activity in experiment [3] was under 40%.

Take `NC(=O)c1cccc([C@H]2C[C@H]3CC[C@@H](C2)N3CCN(CC2CCC2)C(=O)CO)c1.O=C(O)C(F)(F)F`: the negative logarithm of the Ki (pKi) in experiment [1] and in experiment [2] was 7 to 10.5 in each case. The same molecule returned an Intrinsic activity in experiment [3] of under 40%.

`CCCCCNC(=O)N(CCN1[C@@H]2CC[C@H]1C[C@@H](c1cccc(O)c1)C2)CC1CCCCC1`: the pKi in experiment [1] and in experiment [2] was 7 to 10.5 throughout. This molecule also yielded an Intrinsic activity in experiment [3] of under 40%.

Consider `CS(=O)(=O)CC(=O)N(CCN1[C@@H]2CC[C@H]1C[C@@H](c1cccc(C(N)=O)c1)C2)Cc1ccccc1.O=C(O)C(F)(F)F`, for which the pKi in experiment [1] and in experiment [2] was 7 to 10.5 each time. In addition, in experiment [3], the Intrinsic activity is under 40%.

As for `CC(=O)N(CCN1[C@@H]2CC[C@H]1C[C@@H](c1cccc(O)c1)C2)Cc1c(F)cccc1F`, the negative logarithm of the Ki (pKi) in experiment [1] and in experiment [2] was 7 to 10.5 throughout. In experiment [3], this molecule displayed an Intrinsic activity of under 40%.

In the case of `NC(=O)c1cccc([C@H]2C[C@H]3CC[C@@H](C2)N3CCN(CC2CCCCC2)C(=O)CCCO)c1`, the pKi in experiment [1] and in experiment [2] was 7 to 10.5 in each case. Moreover, the Intrinsic activity in experiment [3] was under 40%.

Turning to `O=C([C@H](O)C1CCCCC1)N(CCN1[C@@H]2CC[C@H]1C[C@@H](c1cccc(O)c1)C2)CC1CCCCC1`, the pKi in experiment [1] and in experiment [2] was 7 to 10.5 throughout. The molecule further came in with an Intrinsic activity in experiment [3] of under 40%.

Turning to `O=C(O)CS(=O)(=O)CC(=O)N(CCN1[C@@H]2CC[C@H]1C[C@@H](c1cccc(O)c1)C2)CC1CCCCC1`, the pKi in experiment [1] and in experiment [2] was 7 to 10.5 in each case. The Intrinsic activity in experiment [3] is under 40%.

`CC(=O)N(Cc1ccccc1)[C@H](C)CN1[C@@H]2CC[C@H]1C[C@@H](c1cccc(O)c1)C2`: the pKi in experiment [1] and in experiment [2] was 7 to 10.5 each time. The Intrinsic activity in experiment [3] was under 40%.

`NC(=O)c1cccc([C@H]2C[C@H]3CC[C@@H](C2)N3CCN(CC2CCCCC2)C(=O)CCC(=O)O)c1`: the pKi in experiment [1] and in experiment [2] was 7 to 10.5 throughout. Moreover, the Intrinsic activity in experiment [3] is under 40%.

On to `CC(C)(O)C(=O)N(CCN1[C@@H]2CC[C@H]1C[C@@H](c1cccc(C(N)=O)c1)C2)Cc1ccccc1.O=C(O)C(F)(F)F`, for which the pKi in experiment [1] and in experiment [2] was 7 to 10.5 each time. In experiment [3], this molecule had an Intrinsic activity of under 40%.

Take `O=C(O)CC1(CC(=O)N(CCN2[C@@H]3CC[C@H]2C[C@@H](c2cccc(O)c2)C3)CC2CCCCC2)CCCCC1`: the pKi in experiment [1] and in experiment [2] was 7 to 10.5 throughout. This molecule also gave an Intrinsic activity in experiment [3] of under 40%.

With `CC(C)CC(=O)N(CCN1[C@@H]2CC[C@H]1C[C@@H](c1cccc(O)c1)C2)Cc1cccc(F)c1`, the pKi in experiment [1] and in experiment [2] was 7 to 10.5 in each case. The Intrinsic activity in experiment [3] was under 40%.

Consider `C[C@H](CN1[C@@H]2CC[C@H]1C[C@@H](c1cccc(O)c1)C2)N(Cc1ccccc1)C(=O)CC1CCCC1`, for which the pKi in experiment [1] and in experiment [2] was 7 to 10.5 in each case. This molecule gave an Intrinsic activity in experiment [3] of under 40%.

Turning to `NC(=O)c1cccc([C@H]2C[C@H]3CC[C@@H](C2)N3CCN(CC2CCC2)C(=O)[C@@H](O)CO)c1.O=C(O)C(F)(F)F`, the pKi in experiment [1] and in experiment [2] was 7 to 10.5 in each case. In addition, in experiment [3], the Intrinsic activity was under 40%.

As for `CN(C)CC[C@H](O)C(=O)N(CCN1[C@@H]2CC[C@H]1C[C@@H](c1cccc(C(N)=O)c1)C2)CC1CCC(F)(F)CC1.O=C(O)C(F)(F)F.O=C(O)C(F)(F)F`, the negative-log Ki (pKi) in experiment [1] and in experiment [2] was 7 to 10.5 each time. Moreover, the Intrinsic activity in experiment [3] was under 40%.

As to `CC(C)C[C@H](O)C(=O)N(CCN1[C@@H]2CC[C@H]1C[C@@H](c1cccc(C(N)=O)c1)C2)Cc1c(F)cccc1F.O=C(O)C(F)(F)F`, the pKi in experiment [1] and in experiment [2] was 7 to 10.5 in each case. In experiment [3], the Intrinsic activity is under 40%.

For `COCC(=O)N(CCN1[C@@H]2CC[C@H]1C[C@@H](c1cccc(C(N)=O)c1)C2)CC1CCCCC1.O=C(O)C(F)(F)F`, the pKi in experiment [1] and in experiment [2] was 7 to 10.5 each time. Also, in experiment [3], the Intrinsic activity is under 40%.

Turning to `CN(C)[C@@H](Cc1ccccc1)C(=O)N(CCN1[C@@H]2CC[C@H]1C[C@@H](c1cccc(O)c1)C2)CC1CCCCC1`, the pKi in experiment [1] and in experiment [2] was 7 to 10.5 in each case. This molecule yielded an Intrinsic activity in experiment [3] of under 40%.

For the molecule `O=C(Nc1ccc(OC(F)F)cc1)N(CCN1[C@@H]2CC[C@H]1C[C@@H](c1cccc(O)c1)C2)CC1CCCCC1`, the pKi in experiment [1] and in experiment [2] was 7 to 10.5 in each case. The molecule further showed an Intrinsic activity in experiment [3] of under 40%.

As for `O=C(Nc1cccc(F)c1)N(CCN1[C@@H]2CC[C@H]1C[C@@H](c1cccc(O)c1)C2)CC1CCCCC1`, the pKi in experiment [1] and in experiment [2] was 7 to 10.5 throughout. In experiment [3], this molecule showed an Intrinsic activity of under 40%.

As to `NC(=O)c1cccc([C@H]2C[C@H]3CC[C@@H](C2)N3CCN(CC2CCCCC2)C(=O)[C@H](O)CO)c1`, the pKi in experiment [1] and in experiment [2] was 7 to 10.5 throughout. The molecule further displayed an Intrinsic activity in experiment [3] of under 40%.

On to `O=C(CO)N(CCN1[C@@H]2CC[C@H]1C[C@@H](c1cccc(O)c1)C2)Cc1ccc(C(F)(F)F)cc1`, for which the pKi in experiment [1] and in experiment [2] was 7 to 10.5 each time. The Intrinsic activity in experiment [3] is under 40%.

With `CC(C)(CO)C(=O)N(CCN1[C@@H]2CC[C@H]1C[C@@H](c1cccc(C(N)=O)c1)C2)Cc1ccccc1.O=C(O)C(F)(F)F`, the pKi in experiment [1] and in experiment [2] was 7 to 10.5 throughout. The same molecule registered an Intrinsic activity in experiment [3] of under 40%.

`NC(=O)c1cccc([C@H]2C[C@H]3CC[C@@H](C2)N3CCN(CCc2ccc(O)cc2)C(=O)CO)c1.O=C(O)C(F)(F)F`: the pKi in experiment [1] and in experiment [2] was 7 to 10.5 each time. The molecule further registered an Intrinsic activity in experiment [3] of under 40%.

For the molecule `CC1(C)C(CN(CCN2[C@@H]3CC[C@H]2C[C@@H](c2cccc(C(N)=O)c2)C3)C(=O)CO)C1(C)C`, the pKi in experiment [1] and in experiment [2] was 7 to 10.5 in each case. The Intrinsic activity in experiment [3] was under 40%.
